Values joined by “and” are separate entries in the source; they are usually repeats but may differ in a detail not shown here. Identical values can stand only once.
Legend:
Assay type in all cases: in vivo, dog
[1] = test system: dogs with canine cognitive dysfunction; assay: CADES score questionnaire in dogs with cognitive dysfunction; conditions: for Average CADES score: treated dogs
From the text: Thirty-one dogs older than 10 years were screened for the study. Of these, 14 were excluded from the study because of different abnormal findings observed during the initial examination, including 3 dogs with brain tumor confirmed with the computed tomography (CT); 2 dogs with markedly elevated alanine aminotransferase (ALT) and serum alkaline phosphatase (ALP); 3 dogs with renal disease; 3 dogs with marked hearing and visual deficit; 2 dogs with both renal disease and moderately elevated ALT and ALP and 1 dog with eclampsia.
After the owner's consent, dogs were subjected to physical and neurological examination including body weight and body condition score, blood results for complete blood count (CBC), clinical chemistry, urinanalysis, the canine dementia scale (CADES) questionnaire, and two clinical cognitive tests [food searching test (FST) and problem solving test (PST)]. After these thorough examinations, the decision was made whether the dogs were included in the study. Dogs with systemic illnesses that could interfere with their cognitive function were excluded from the study.
Only dogs aged 10 years or older were included in the study. […] Dogs were not treated with any other medications for cognitive impairment. However, dogs that were included in the control group were allowed to be feed with the commercial therapeutic diet for cognitive decline, if they were on it at least 8 weeks before entering the study and if they maintained the same dietary protocol for the duration of the study. Dogs in the treatment group that were on a diet meant to treat cognitive decline were required to be off the diet for at least 30 days before enrollment and during the duration of the study.
(§1) The study design was following the guidelines of the European Directive 2010/63/EU. Before starting the experimental therapy with their pets, each owner was required to sign an informed consent form. According to The Administration of the Republic of Slovenian for Food Safety, Veterinary and Plant Protection, no ethical permission was needed as the study was performed on clinical patients with the owners' consents. In total, seventeen dogs showing signs of cognitive dysfunction were included in the study. […] Upon enrollment, dogs were physically and neurologically examined, blood and urine analysis were performed. Additionally, a questionnaire based on a modified CADES scale score and two clinical tests (FST and problem PST) for assessing their cognitive function were performed. Dogs were randomly allocated to one of the following two groups: Control group (n=7) without treatment and the treatment group (n=10). Questionnaire and cognitive tests were performed every 2 months on all the dogs included in the study.
Owners were observing their dog's health status daily during the duration of the study. In case of any serious or abnormal observations, they had to contact the participating veterinarian. Physical and excessive neurological examinations (behavior and consciousness, cranial nerves, gait and posture, postural reactions, spinal reflexes) were carried out by the veterinarian and included an assessment of all body systems. A full spectrum of neurobehavioral symptoms including apathy, anxiety, staring blankly, confusion or aimless walking, vocalization during the night, aggression, signs of compulsive and stereotyped behavior, etc. were obtained by questioning the pet owners. Dogs were monitored during examinations. Their responses to familiar and unfamiliar people and objects were observed. Exams were performed at the beginning of the study and every two weeks for the first two months if dogs were included in the treatment group. Thereafter, exams were performed every two months for the duration of the study (at least for 6 months). The control group was examined only every 2 months until the end of the study (for at least 6 months).
Changes in behavior of all dogs were evaluated by the same veterinarian. […]

[2] = test system: dogs with canine cognitive dysfunction; assay: Cognitive tests (food searching test FST and problem solving test PST) in dogs with cognitive dysfunction; design: Problem solving test scores (sum of FST and PST test), individual patient: scale not given here; conditions: for Problem solving score (sum of FST and PST), group mean: treated dogs; for Problem solving test scores (sum of FST and PST test), individual patient: treated group, one line per patient 1-7, Hydrochloride
Experimental: as §1
FST and PST were performed on each dog included in the study. The design of these tests was based on previously published tests for canine cognitive dysfunction (González-Martinez A. et al. Vet. J. 2013, 198, 176-181). The cognitive tests were evaluated by the same veterinarian. Dogs were tested in the morning after at least 10 hours of the fasting period.
This test was based on testing the dog's ability to find hidden food. The dog was seated in the middle of the room while being on the leash. […] While maintaining visual contact with the dog and still communicating with the dog, showing the food, the veterinarian than moved backward and placed the food in the corner of the room. The veterinarian than stared at the food and pointed to it with his hand for 2-3 s to increase the dog's visual processing. The owner was then asked to leave the room with the dog and wait outside for 15 s. After returning to the room, the dog was placed into the center of the room unleashed and allowed to freely explore the room for 1 minute. No verbal or other clues were allowed. The procedure was repeated twice. […] The FST total score was the average of both runs.
In this test, the ability of the dog to obtain the food by manipulating an object was assessed. […] After that, the food was placed on the floor in front of the dog and covered with a transparent plastic box that had been turned upside down. The dog was given 2 minutes to find a way to remove the box and get the food. […]
Results are presented as mean+SD. […] CADES score and results from behavioral tests were analyzed by repeated measures ANOVA with treatment as the independent variable and clinical test (before the treatment, 3 months, and 6 months after the treatment) as within factor. […]

[3] = test system: dogs with canine cognitive dysfunction; assay: Side effects during treatment of dogs with cognitive dysfunction
Experimental: as §1
Owners were observing their dog's health status daily during the duration of the study. In case of any serious or abnormal observations, they had to contact the participating veterinarian. […] Dogs were monitored during examinations. […]

[4] = treated group, after three months

Q: For `COCCN(CC1CCCN(Cc2ccccc2)C1)S(=O)(=O)c1ccc2ccccc2c1.Cl` (racemic) [(±)-N-((1-Benzylpiperidin-3-Yl)Methyl)-N-(2-Methoxyethyl)Naphthalene-2-Sulfonamide Hydrochloride], which “Observed change in cognitive abilities” value ([1]; all treated dogs, six-month study) is on record?
A: improved memory, cognitive functions, and learning abilities

Q: What about the “Average CADES score” value ([1]; after six months, untreated (2 remaining dogs) 80.5) of the same molecule?
A: 12.6+/−3.0

Q: What about the “Average CADES score” value ([1]; after three months, baseline 39+/−16.4, untreated 64.0+/−12.8) of the same molecule?
A: 17.1+/−10.6

Q: And the “Cognitive state according to CADES” value ([1]; treated group, after six months)?
A: all dogs showed moderate cognitive impairment with low CADES score

Q: What about the “Dogs showing moderate cognitive impairment (two affected domains)” value [1, 4] of the same molecule?
A: 85.7%

Q: What about the “Dogs showing severe cognitive impairment (three affected domains)” value [1, 4] of the same molecule?
A: 14.3%

Q: And the Survival ([1]; treated group, six-month study, 5 of 7 untreated dogs euthanized)?
A: all dogs included stayed alive throughout the study

Q: What about the “Problem solving score (sum of FST and PST), group mean” value ([2]; after six months) of the same molecule?
A: 2.7+/−1.0

Q: And the “Problem solving score (sum of FST and PST), group mean” value ([2]; after three months, baseline 5.3+/−1.4, untreated 7.6+/−1)?
A: 3.1+/−1.1

Q: What about the “Problem solving test scores (sum of FST and PST test), individual patient” value ([2]; after six months) of the same molecule?
A: 2 (4×) and 3 and 4 (2×)

Q: And the “Problem solving test scores (sum of FST and PST test), individual patient” value ([2]; after three months)?
A: 4 (4×) and 2 (3×)

Q: And the Side effects ([3]; dogs with moderate cognitive impairment, 6 months of treatment)?
A: without any noticeable side effects

Q: What about the Side effects ([3]; dogs with severe cognitive impairment (3 dogs), treatment stopped) of the same molecule?
A: signs of gastrointestinal problems with vomiting and diarrhea
